Reference: patent US20070213346A1, “Substituted 4-Alkyl-And 4-Alkanoyl-Piperidine Derivatives And Their Use As Neurokinin Antagonists” (priority 2004, published 2007)

How the values were obtained:
Assay type in all cases: cell-based
NK3 = biological target: T1, NK3 (Homo sapiens, UniProt P29371); test: Signal transduction (ST), intracellular Ca++ FLIPR, NK3; conditions: antagonist, Ca++ transient peak, read-out: NK3 pIC50 (converted)
T1 sequence (P29371 1-465): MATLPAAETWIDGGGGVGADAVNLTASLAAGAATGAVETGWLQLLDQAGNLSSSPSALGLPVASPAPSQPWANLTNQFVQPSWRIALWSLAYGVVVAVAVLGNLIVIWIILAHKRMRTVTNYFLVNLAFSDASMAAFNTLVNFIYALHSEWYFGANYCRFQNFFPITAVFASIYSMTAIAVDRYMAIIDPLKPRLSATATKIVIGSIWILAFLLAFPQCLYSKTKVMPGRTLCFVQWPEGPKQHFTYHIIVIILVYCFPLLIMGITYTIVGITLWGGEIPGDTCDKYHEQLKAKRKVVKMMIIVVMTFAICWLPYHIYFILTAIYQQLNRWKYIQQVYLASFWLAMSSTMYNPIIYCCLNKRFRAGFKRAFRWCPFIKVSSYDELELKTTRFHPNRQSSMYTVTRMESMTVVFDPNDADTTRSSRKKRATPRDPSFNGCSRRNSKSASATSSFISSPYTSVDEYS
Protocol: [The source words this procedure for another target and reports this target under the same test.] (§1) This test evaluates in vitro functional NK1 antagonistic activity. For the measurements of intracellular Ca^++ concentrations the cells were grown on 96-well (black wall/transparent bottom) plates from Costar for 2 days until they reached confluence. The cells were loaded with 2 μM Fluo3 in DMEM containing 0.1% BSA and 2.5 mM probenecid for 1 h at 37° C. They were washed 3× with a Krebs buffer (140 mM NaCl, 1 mM MgCl2x6H2O, 5 mM KCl, 10 mM glucose, 5 mM HEPES; 1.25 mM CaCl2; pH 7.4) containing 2.5 mM probenecid and 0.1% BSA (Ca^++-buffer). The cells were preincubated with a concentration range of antagonists for 20 min at RT and Ca^++-signals after addition of the agonists were measured in a Fluorescence Image Plate Reader (FLIPR from Molecular Devices, Crawley, England). The peak of the Ca^++-transient was considered as the relevant signal and the mean values of corresponding wells were analysed as described below.
(§2) The sigmoidal dose response curves were analysed by computerised curve-fitting, using the GraphPad program. The EC50-value of a compound is the effective dose showing 50% of maximal effect. For mean curves the response to the agonist with the highest potency was normalised to 100%. For antagonist responses the IC50-value was calculated using non-linear regression.
(§3) The last columns indicates—without being limited thereto—for which use the compounds might be most suitable. Of course, since for some neurokinin receptors no data was determined, it is obvious that these compounds might be attributed to another suitable use.

NK1 = NK1 (Homo sapiens, UniProt P25103); test: Signal transduction (ST), intracellular Ca++ FLIPR, NK1; conditions: antagonist, Ca++ transient peak, read-out: NK1 pIC50 (converted)
Protocol: as §1
as §2, with “regression. […]” for “regression.”

NK2 = biological target: T2, NK2 (Homo sapiens, UniProt P21452); test: Signal transduction (ST), intracellular Ca++ FLIPR, NK2; conditions: antagonist, Ca++ transient peak, read-out: NK2 pIC50 (converted)
T2 sequence (P21452 1-398): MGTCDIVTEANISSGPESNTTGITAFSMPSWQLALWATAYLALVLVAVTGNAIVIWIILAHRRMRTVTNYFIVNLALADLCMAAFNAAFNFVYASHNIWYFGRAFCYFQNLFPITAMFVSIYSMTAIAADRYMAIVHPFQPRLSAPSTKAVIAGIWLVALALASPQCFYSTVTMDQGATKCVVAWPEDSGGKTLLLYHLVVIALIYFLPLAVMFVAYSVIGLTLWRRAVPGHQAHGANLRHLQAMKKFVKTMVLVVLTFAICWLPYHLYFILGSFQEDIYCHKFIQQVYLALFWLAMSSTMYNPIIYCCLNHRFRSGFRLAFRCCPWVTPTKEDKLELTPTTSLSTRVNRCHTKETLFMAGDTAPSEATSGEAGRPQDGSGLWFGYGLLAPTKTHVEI
Protocol: [The source words this procedure for another target and reports this target under the same test.] as §1, §2, §3

Sequence of NK1 (P25103 whole entry): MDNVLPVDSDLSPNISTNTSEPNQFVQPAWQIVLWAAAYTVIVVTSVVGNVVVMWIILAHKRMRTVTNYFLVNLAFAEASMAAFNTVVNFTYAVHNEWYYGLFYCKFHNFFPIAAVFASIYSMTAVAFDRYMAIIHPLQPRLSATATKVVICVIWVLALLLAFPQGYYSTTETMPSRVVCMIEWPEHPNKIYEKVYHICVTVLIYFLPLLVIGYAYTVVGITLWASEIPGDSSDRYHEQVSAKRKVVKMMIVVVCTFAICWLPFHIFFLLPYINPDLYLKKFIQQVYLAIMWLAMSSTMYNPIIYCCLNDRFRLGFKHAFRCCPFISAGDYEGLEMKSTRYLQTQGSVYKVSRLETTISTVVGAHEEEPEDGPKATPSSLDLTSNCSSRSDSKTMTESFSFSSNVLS

Compound	IC50 (NK3) [µM]	IC50 (NK1) [µM]	IC50 (NK2) [µM]
O=C(c1cccs1)N1CCC(N2CCN(C[C@H]3CCN(C(=O)c4cc(C(F)(F)F)cc(C(F)(F)F)c4)[C@H](Cc4ccccc4)C3)CC2)CC1 (relative stereo) [Compound 37]	7.08	0.275	8.91
O=C(c1ccoc1)N1CCC(N2CCN(CC3CCN(C(=O)c4cc(C(F)(F)F)cc(C(F)(F)F)c4)C(Cc4ccccc4)C3)CC2)C1 (stereo not drawn) [Compound 11]	~7.94	0.0501	7.41
O=C(C1CC1)N1CCC(N2CCN(CC3CCN(C(=O)c4cc(C(F)(F)F)cc(C(F)(F)F)c4)C(Cc4ccccc4)C3)CC2)CC1 (stereo not drawn) [Compound 15]	~7.76	0.191	~3.16
O=C(c1cc(C(F)(F)F)cc(C(F)(F)F)c1)N1CCC(CN2CCN(C3CCN(c4ncccn4)CC3)CC2)CC1Cc1ccccc1 (stereo not drawn) [Compound 17]	5.25	0.0851	7.24
Cc1ccc(N2CCC(N3CCN(CC4CCN(C(=O)c5cc(C(F)(F)F)cc(C(F)(F)F)c5)C(Cc5ccccc5)C4)CC3)CC2)nn1 (stereo not drawn) [Compound 18]	> 10	0.229	> 10
O=C(c1cc(C(F)(F)F)cc(C(F)(F)F)c1)N1CCC(CN2CCN(C3CCN(c4cnccn4)CC3)CC2)CC1Cc1ccccc1 (stereo not drawn) [Compound 19]	7.94	0.288	> 10
Cn1c(Cl)cnc1CN1CCC(N2CCN(CC3CCN(C(=O)c4cc(C(F)(F)F)cc(C(F)(F)F)c4)C(Cc4ccccc4)C3)CC2)CC1 (stereo not drawn) [Compound 20]	> 10	0.0933	> 10
COc1cccc(CC(=O)N2CCC(N3CCN(CC4CCN(C(=O)c5cc(C(F)(F)F)cc(C(F)(F)F)c5)C(Cc5ccccc5)C4)CC3)CC2)c1 (stereo not drawn) [Compound 52]	~9.77	0.316	2.34
O=C(C1CC1)N1CCC(N2CCN(C(=O)[C@H]3CCN(C(=O)c4cc(C(F)(F)F)cc(C(F)(F)F)c4)[C@H](Cc4ccccc4)C3)CC2)CC1 [Compound 56]	0.692	0.0123	4.68
O=C(c1cc(C(F)(F)F)cc(C(F)(F)F)c1)N1CCC(CN2CCN(C3CCNC3)CC2)CC1Cc1ccccc1 (stereo not drawn) [Compound 60]	> 10	0.182	> 10
O=C(C1CC1)N1CCC(N2CCN(C[C@H]3CCN(C(=O)c4cc(C(F)(F)F)cc(C(F)(F)F)c4)[C@H](Cc4ccccc4)C3)CC2)C1 (stereo partly drawn) [Compound 61]	> 10	0.0741	> 10
O=C(c1ccsc1)N1CCC(N2CCN(C[C@H]3CCN(C(=O)c4cc(C(F)(F)F)cc(C(F)(F)F)c4)[C@H](Cc4ccccc4)C3)CC2)C1 (stereo partly drawn) [Compound 62]	> 10	0.1	7.24
Cc1nnsc1C(=O)N1CCC(N2CCN(C[C@H]3CCN(C(=O)c4cc(C(F)(F)F)cc(C(F)(F)F)c4)[C@H](Cc4ccccc4)C3)CC2)C1 (stereo partly drawn) [Compound 63]	> 10	0.0708	> 10
O=C(c1ccccc1)N1CCC(N2CCN(C[C@H]3CCN(C(=O)c4cc(C(F)(F)F)cc(C(F)(F)F)c4)[C@H](Cc4ccccc4)C3)CC2)C1 (stereo partly drawn) [Compound 64]	> 10	0.117	> 10
O=C(c1cccnc1)N1CCC(N2CCN(C[C@H]3CCN(C(=O)c4cc(C(F)(F)F)cc(C(F)(F)F)c4)[C@H](Cc4ccccc4)C3)CC2)C1 (stereo partly drawn) [Compound 65]	> 10	0.105	> 10
O=C(c1cc(C(F)(F)F)cc(C(F)(F)F)c1)N1CCC(O)(CN2CCN(C3CCNC3)CC2)CC1Cc1ccccc1 (stereo not drawn) [Compound 76]	> 10	0.148	> 10
O=C(C1CC1)N1CCC(N2CCN(CC3(O)CCN(C(=O)c4cc(C(F)(F)F)cc(C(F)(F)F)c4)C(Cc4ccccc4)C3)CC2)C1 (stereo not drawn) [Compound 77]	2.88	0.0427	7.94
O=C(c1ccoc1)N1CCC(N2CCN(CC3(O)CCN(C(=O)c4cc(C(F)(F)F)cc(C(F)(F)F)c4)C(Cc4ccccc4)C3)CC2)C1 (stereo not drawn) [Compound 78]	2.51	0.0363	8.91
O=C(c1ccccc1)N1CCC(N2CCN(CC3(O)CCN(C(=O)c4cc(C(F)(F)F)cc(C(F)(F)F)c4)C(Cc4ccccc4)C3)CC2)C1 (stereo not drawn) [Compound 79]	7.24	0.0316	9.12
O=C(c1cccnc1)N1CCC(N2CCN(CC3(O)CCN(C(=O)c4cc(C(F)(F)F)cc(C(F)(F)F)c4)C(Cc4ccccc4)C3)CC2)C1 (stereo not drawn) [Compound 80]	> 10	0.0302	8.13
O=C(C1CCOC1)N1CCC(N2CCN(C(=O)[C@H]3CCN(C(=O)c4cc(C(F)(F)F)cc(C(F)(F)F)c4)[C@H](Cc4ccccc4)C3)CC2)CC1 (stereo partly drawn) [Compound 92]	0.871	0.024	6.76
Cc1nnsc1C(=O)N1CCC(N2CCN(CC3(O)CCN(C(=O)c4cc(C(F)(F)F)cc(C(F)(F)F)c4)C(Cc4ccccc4)C3)CC2)C1 (stereo not drawn) [Compound 93]	4.27	0.0398	7.76
